The results in this text go back to article PMC10413907 (Journal of Evidence-based Integrative Medicine, 2023).

Each structure is given as a SMILES string. Several values for one entry are separate records, joined by “and”; a condition that tells them apart may be missing. Equal values may be shown once. Read-outs that look alike come from different tables or passages of the source. Where only a bound is given, the exact number is not on record here.

Data set [1] addresses recombinant human CYP2C19 (Homo sapiens, UniProt P33261). The data set can be described thus: P450-Glo bioluminescent CYP450 inhibition assay. Type of data set: in vitro ADME.
Another data set deals with recombinant human CYP2C9 (Homo sapiens, UniProt P11712). The experiment in a line: P450-Glo bioluminescent CYP450 inhibition assay.
For the next data set, the target named is recombinant human CYP2D6 (Homo sapiens, UniProt P10635). The experiment in a line: P450-Glo bioluminescent CYP450 inhibition assay.
The target of another data set is T1, recombinant human CYP1A2 (Homo sapiens, UniProt P05177).
T1 sequence (P05177 1-516): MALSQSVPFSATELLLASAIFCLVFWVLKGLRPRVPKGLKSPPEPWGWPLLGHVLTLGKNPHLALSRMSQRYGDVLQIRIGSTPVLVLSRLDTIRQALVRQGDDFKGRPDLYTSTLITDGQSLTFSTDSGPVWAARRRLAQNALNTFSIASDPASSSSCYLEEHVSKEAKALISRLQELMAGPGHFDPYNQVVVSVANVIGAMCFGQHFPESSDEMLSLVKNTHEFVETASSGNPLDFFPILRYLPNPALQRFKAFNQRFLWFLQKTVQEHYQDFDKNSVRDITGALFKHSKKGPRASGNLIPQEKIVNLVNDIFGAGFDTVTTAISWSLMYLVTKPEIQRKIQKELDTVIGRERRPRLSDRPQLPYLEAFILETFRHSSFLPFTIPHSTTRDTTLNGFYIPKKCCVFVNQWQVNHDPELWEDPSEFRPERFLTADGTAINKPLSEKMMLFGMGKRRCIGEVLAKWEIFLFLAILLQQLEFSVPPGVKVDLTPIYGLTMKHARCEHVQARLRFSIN
The experiment in a line: P450-Glo bioluminescent CYP450 inhibition assay. The data set is classed as in vitro ADME.

A further data set deals with recombinant human CYP3A4 (Homo sapiens, UniProt P08684). The data set can be described thus: P450-Glo bioluminescent CYP450 inhibition assay. Type of data set: in vitro ADME.
In another data set the test system is IL-12p19 mRNA. The experiment in a line: Pro-inflammatory cytokine mRNA expression. Conditions: PBMCs from psoriasis patients vs healthy subjects. The data set is classed as cell-based, human.
The test system of another data set is HaCaT cells. The experiment in a line: MTT cell proliferation assay, HaCaT. The conditions noted are these: 48 h, median (range). Type of data set: cell-based, human. For orientation: Tetrazolium dyes change colour on reduction, which living cells bring about.
The subject of data set [2] is PBMCs from psoriasis patients and healthy subjects. The data set can be described thus: Cell apoptosis/necrosis, FITC-Annexin V/PI flow cytometry, PBMCs. Type of data set: cell-based, human. The conditions noted are these: 48 h exposure; for proportions of PBMCs with early apoptosis, psoriasis patients compared with healthy volunteers: both concentrations. Background: A flow cytometer gives signals particle by particle.

For another data set, the system named is IL-23A mRNA. The experiment in a line: Pro-inflammatory cytokine mRNA expression. The data set is classed as cell-based, human. The conditions noted are these: PBMCs from psoriasis patients vs healthy subjects, 48 h.
The test system of data set [3] is PBMCs (from healthy subjects). The data set can be described thus: MTT cell proliferation assay, PBMCs. The data set is classed as cell-based, human.
Another data set concerns IL-6 mRNA. The data set can be described thus: Pro-inflammatory cytokine mRNA expression. Type of data set: cell-based, human. The conditions noted are these: PBMCs from psoriasis patients vs healthy subjects; 48 h; IC50.
The test system of another data set is TNF-α mRNA. The data set can be described thus: Pro-inflammatory cytokine mRNA expression. Conditions: PBMCs from psoriasis patients vs healthy subjects; 48 h; IC25. The data set is classed as cell-based, human.
The test system of data set [4] is PBMCs from psoriasis patients and healthy subjects. The data set can be described thus: Cell cycle analysis by flow cytometry. The data set is classed as cell-based, human. The conditions noted are these: PBMCs from patients with psoriasis; 24 h; both concentrations.
The mark [5] stands for this setting: read-out: CYP2C19 IC50, median (range), unit of the reference inhibitor.
Setting [6] is: read-out: CYP2C19 inhibitory potency class, class by IC50.
[7] abbreviates: read-out: CYP2C9 IC50, median (range), unit of the reference inhibitor.
[8] abbreviates: read-out: CYP2C9 inhibitory potency class, class by IC50.
Setting [9] is: read-out: CYP2D6 IC50, median (range), unit of the reference inhibitor.
Where [10] appears, read: read-out: CYP2D6 inhibitory potency class, class by IC50.
The mark [11] stands for this setting: read-out: CYP1A2 IC50, median (range), unit of the reference inhibitor.
Setting [12] is: read-out: CYP1A2 inhibitory potency class, class by IC50.
Where [13] appears, read: read-out: CYP3A4 IC50, median (range), unit of the reference inhibitor.
Where [14] appears, read: read-out: CYP3A4 inhibitory potency class, class by IC50.

Chain of recombinant human CYP2C9 (P11712 whole entry): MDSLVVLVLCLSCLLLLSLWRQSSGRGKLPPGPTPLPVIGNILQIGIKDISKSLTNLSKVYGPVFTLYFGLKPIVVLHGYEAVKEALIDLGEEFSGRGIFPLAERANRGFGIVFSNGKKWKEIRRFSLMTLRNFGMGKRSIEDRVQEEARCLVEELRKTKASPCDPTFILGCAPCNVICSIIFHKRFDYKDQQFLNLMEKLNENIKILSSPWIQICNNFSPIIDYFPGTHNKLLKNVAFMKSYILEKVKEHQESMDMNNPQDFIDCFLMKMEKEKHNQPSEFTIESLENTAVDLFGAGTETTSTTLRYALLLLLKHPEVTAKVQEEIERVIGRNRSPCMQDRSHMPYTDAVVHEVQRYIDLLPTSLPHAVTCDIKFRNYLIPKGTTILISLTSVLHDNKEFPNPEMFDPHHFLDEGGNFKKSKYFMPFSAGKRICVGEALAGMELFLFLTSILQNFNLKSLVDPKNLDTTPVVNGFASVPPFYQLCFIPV
Chain of recombinant human CYP2C19 (P33261 whole entry): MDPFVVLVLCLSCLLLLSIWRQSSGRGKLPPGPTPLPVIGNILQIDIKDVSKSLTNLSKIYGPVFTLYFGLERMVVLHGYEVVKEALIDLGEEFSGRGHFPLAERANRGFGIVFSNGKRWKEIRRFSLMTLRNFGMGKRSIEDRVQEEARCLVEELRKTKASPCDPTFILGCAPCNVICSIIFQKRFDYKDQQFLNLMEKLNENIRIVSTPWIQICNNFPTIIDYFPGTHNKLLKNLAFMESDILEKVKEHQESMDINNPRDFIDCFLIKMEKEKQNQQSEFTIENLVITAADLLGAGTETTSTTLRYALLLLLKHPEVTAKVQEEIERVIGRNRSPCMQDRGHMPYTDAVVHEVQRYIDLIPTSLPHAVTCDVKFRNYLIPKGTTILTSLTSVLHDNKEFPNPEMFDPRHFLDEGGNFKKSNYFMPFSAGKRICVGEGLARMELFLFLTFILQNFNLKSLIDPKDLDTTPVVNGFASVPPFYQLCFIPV
Chain of recombinant human CYP2D6 (P10635 whole entry): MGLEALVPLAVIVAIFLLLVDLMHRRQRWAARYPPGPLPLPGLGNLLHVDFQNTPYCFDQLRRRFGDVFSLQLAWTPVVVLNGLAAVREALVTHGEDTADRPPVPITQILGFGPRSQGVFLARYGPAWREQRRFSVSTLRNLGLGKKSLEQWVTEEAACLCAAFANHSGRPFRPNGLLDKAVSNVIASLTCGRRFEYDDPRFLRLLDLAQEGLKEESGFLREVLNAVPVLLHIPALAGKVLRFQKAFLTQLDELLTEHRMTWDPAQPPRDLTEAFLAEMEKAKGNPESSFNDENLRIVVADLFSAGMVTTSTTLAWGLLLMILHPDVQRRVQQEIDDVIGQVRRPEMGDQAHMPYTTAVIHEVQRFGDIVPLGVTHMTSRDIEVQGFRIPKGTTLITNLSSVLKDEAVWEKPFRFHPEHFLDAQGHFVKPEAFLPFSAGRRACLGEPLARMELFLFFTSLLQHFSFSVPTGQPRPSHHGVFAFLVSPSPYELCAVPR
Chain of recombinant human CYP3A4 (P08684 whole entry): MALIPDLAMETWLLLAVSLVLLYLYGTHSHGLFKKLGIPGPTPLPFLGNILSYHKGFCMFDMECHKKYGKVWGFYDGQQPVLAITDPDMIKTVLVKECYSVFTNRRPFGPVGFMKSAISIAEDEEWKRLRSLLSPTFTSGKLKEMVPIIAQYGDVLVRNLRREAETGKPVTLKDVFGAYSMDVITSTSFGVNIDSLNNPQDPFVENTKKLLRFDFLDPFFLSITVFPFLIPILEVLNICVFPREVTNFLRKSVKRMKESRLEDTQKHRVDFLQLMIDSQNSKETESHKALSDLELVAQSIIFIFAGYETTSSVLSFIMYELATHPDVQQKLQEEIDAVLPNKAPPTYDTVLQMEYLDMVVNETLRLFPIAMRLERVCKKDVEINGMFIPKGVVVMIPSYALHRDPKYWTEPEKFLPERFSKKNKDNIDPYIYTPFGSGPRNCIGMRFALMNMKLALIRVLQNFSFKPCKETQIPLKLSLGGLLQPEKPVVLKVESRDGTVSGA

For the molecule `COc1cc(/C=C/C(=O)O)ccc1O` [Ferulic acid, ferulic acid], the IC50 in data set [1] (setting [5]) is 1450 µM; in data set [1] (setting [6]) it was greater than 50 µM; at recombinant human CYP2C9 (setting [7]), 469 µM; at recombinant human CYP2C9 (setting [8]), greater than 50 µM; on recombinant human CYP2D6 (setting [9]), 11.4 µM; at recombinant human CYP2D6 (setting [10]), 10 to 50 µM. The IC50 on recombinant human CYP1A2 (setting [11]) was 5250 µM; at recombinant human CYP1A2 (setting [12]) it was greater than 50 µM; on recombinant human CYP3A4 (setting [13]) it was 1150 µM; on recombinant human CYP3A4 (setting [14]), greater than 50 µM. Moreover, on recombinant human CYP2D6 (class by IC50), the “CYP2D6 inhibitory potency class” value is “moderately inhibited”.

With `CCOC(=O)C=Cc1ccc(OC)cc1` [EPMC, ethyl-p-methoxycinnamate], the IC50 was 80.4 µM in data set [1] (setting [5]); greater than 50 µM in [1] (setting [6]); 87.5 µM at recombinant human CYP2C9 (setting [7]); greater than 50 µM at recombinant human CYP2C9 (setting [8]); 554 µM in the data set on HaCaT cells (read-out: HaCaT IC50, MTT); 17.8 µM at recombinant human CYP2D6 (setting [9]). Moreover, the IC50 was 10 to 50 µM at recombinant human CYP2D6 (setting [10]); 118 µM on recombinant human CYP1A2 (setting [11]); greater than 50 µM at recombinant human CYP1A2 (setting [12]); 306 µM and 305 µM in data set [3] (read-out: PBMCs IC50, 48 h, median (range)); 865 µM on recombinant human CYP3A4 (setting [13]); greater than 50 µM at recombinant human CYP3A4 (setting [14]). The “IL-12p19 mRNA expression” value with IL-12p19 mRNA (24 h, only at IC50) is reported as “downregulating”. In addition, the “HaCaT IC25” value with HaCaT cells (MTT) is reported as 432 (395-458) μM. Further, in the data set with HaCaT cells (MTT), the “HaCaT IC50” value came out at 114.25 µg/mL. In addition, the “CYP2D6 inhibitory potency class” value at recombinant human CYP2D6 (class by IC50) is given as “moderately inhibited”. The “proportions of PBMCs with early apoptosis, psoriasis patients compared with healthy volunteers” value in [2] is recorded as “significantly lower”. The “IL-23A mRNA expression” value with IL-23A mRNA (IC50) is “reduced”. In addition, the “PBMCs IC25” value in data set [3] (48 h, median (range)) was 254 (234-258) μM. Further, in [3] (48 h, median (range)), the “PBMCs IC50” value was determined as 63.09 µg/mL. The “IL-6 mRNA expression” value in the data set with IL-6 mRNA is reported as “reduced”.

As to `CCC/C=C1\OC(=O)C2=C1CCC=C2` [Ligustilide, ligustilide], the IC50 was 89.2 µM in [1] (CYP2C19 IC50, median (range), unit of the reference inhibitor); greater than 50 µM in data set [1] (CYP2C19 inhibitory potency class, class by IC50); 114 µM on recombinant human CYP2C9 (CYP2C9 IC50, median (range), unit of the reference inhibitor); greater than 50 µM on recombinant human CYP2C9 (CYP2C9 inhibitory potency class, class by IC50); 188 µM and 35.8 µg/mL in the data set on HaCaT cells (Homo sapiens, HaCaT, read-out: HaCaT IC50, MTT, 48 h); 218 µM on recombinant human CYP2D6 (CYP2D6 IC50, median (range), unit of the reference inhibitor). Also, the IC50 on recombinant human CYP2D6 (CYP2D6 inhibitory potency class, class by IC50) is greater than 50 µM; on recombinant human CYP1A2 it was 10 to 50 µM; at recombinant human CYP3A4 (CYP3A4 IC50, median (range), unit of the reference inhibitor), 39.8 µM; on recombinant human CYP3A4 (CYP3A4 inhibitory potency class, class by IC50), 10 to 50 µM. In addition, in the data set on TNF-α mRNA, the “TNF-α mRNA expression” value was “downregulated”. Besides, in the data set with IL-12p19 mRNA (48 h, IC25), the “IL-12p19 mRNA expression” value was “downregulated”. Moreover, the “HaCaT IC25” value with HaCaT cells (MTT) is recorded as 151 (138-155) μM. Moreover, the “CYP1A2 inhibitory potency class” value on recombinant human CYP1A2 (class by IC50) is reported as “moderately inhibited”. The “proportions of living PBMCs from psoriasis patients compared with PBMCs from healthy volunteers” value in data set [2] was “significantly higher”. Besides, the “proportions of PBMCs with early apoptosis, psoriasis patients compared with healthy volunteers” value in data set [2] is “significantly lower”. The “phase of cell cycle arrest” value in data set [4] is given as “S phase”. Moreover, the “IL-23A mRNA expression” value in the data set with IL-23A mRNA (IC25) is on record as “downregulated”. Further, the “PBMCs IC25” value in data set [3] (48 h, median (range)) is recorded as 105 (101-106) μM. The “CYP3A4 inhibitory potency class” value at recombinant human CYP3A4 (class by IC50) was “moderately inhibited”. The “IL-6 mRNA expression” value in the data set with IL-6 mRNA is on record as “downregulating”.
